One data set has as its target hCA IX (Homo sapiens, UniProt Q16790). The experiment in a line: Stopped-flow CO2 hydrase assay, hCA IX. The following applies: for SI CA I/IX / SI CA II/IX: selectivity index, ratio of KIs.
In another data set the target is hCA IV (Homo sapiens, UniProt P22748). The experiment in a line: Stopped-flow CO2 hydrase assay, hCA IV. The following applies: for SI CA I/IV / SI CA II/IV: selectivity index, ratio of KIs.
Another data set addresses hCA II (Homo sapiens, UniProt P00918). The experiment in a line: Stopped-flow CO2 hydrase assay, hCA II. Conditions: for SI CA I/II: selectivity index, ratio of KIs.
The target of a further data set is hCA XII (Homo sapiens, UniProt O43570). Description: Stopped-flow CO2 hydrase assay, hCA XII. The following applies: for SI CA I/XII / SI CA II/XII: selectivity index, ratio of KIs.
Sequence of hCA XII (O43570 25-354): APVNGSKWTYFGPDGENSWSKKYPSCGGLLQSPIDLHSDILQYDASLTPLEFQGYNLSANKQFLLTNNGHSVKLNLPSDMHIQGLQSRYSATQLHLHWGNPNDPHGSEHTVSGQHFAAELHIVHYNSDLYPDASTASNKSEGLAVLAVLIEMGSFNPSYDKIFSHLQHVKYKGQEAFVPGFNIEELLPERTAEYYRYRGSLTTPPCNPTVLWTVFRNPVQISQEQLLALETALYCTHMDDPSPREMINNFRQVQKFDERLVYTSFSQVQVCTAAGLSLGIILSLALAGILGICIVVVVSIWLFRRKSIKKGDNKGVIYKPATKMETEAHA
The target of a further data set is hCA I (Homo sapiens, UniProt P00915). Description: Stopped-flow CO2 hydrase assay, hCA I.
Sequence of hCA I (P00915 whole entry): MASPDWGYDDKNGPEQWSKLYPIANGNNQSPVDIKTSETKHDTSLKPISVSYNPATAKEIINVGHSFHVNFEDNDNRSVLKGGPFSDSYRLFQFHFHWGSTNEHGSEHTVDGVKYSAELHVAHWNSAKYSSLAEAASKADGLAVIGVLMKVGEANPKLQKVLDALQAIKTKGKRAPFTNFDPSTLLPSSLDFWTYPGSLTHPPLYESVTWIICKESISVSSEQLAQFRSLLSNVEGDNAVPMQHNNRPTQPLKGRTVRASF

SMILES strings stand for the structures.

Sequence of hCA IV (P22748 19-312): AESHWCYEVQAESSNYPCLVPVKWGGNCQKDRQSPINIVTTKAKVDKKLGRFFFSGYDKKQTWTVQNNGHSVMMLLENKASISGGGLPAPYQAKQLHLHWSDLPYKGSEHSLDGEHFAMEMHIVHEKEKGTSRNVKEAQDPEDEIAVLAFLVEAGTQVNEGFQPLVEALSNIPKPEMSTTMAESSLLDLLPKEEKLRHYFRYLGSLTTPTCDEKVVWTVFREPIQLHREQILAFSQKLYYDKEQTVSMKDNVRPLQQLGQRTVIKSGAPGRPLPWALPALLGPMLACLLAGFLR
Procedure for hCA II: (§1) The uncatalyzed rates were determined in the same manner and subtracted from the total observed rates. Stock solutions of inhibitor (0.1 mM) were prepared in distilled-deionized water and dilutions up to 0.01 nM were done thereafter with the assay buffer. […] The inhibition constants were obtained by nonlinear least-squares methods using PRISM 3 and the Cheng–Prusoff equation, as reported earlier,[39] and represent the mean from at least three different determinations.
Procedure for hCA IV: as §1
Procedure for hCA XII: as §1

Regarding `NS(=O)(=O)c1ccc(CCNCc2ccc(Cl)cc2)cc1` [Compound 6, 4-(2-((4-Chlorobenzyl)amino)ethyl)benzenesulfonamide], at hCA IX, the Ki amounted to 67.4 nM, the “SI CA I/IX” value was found to be 2.0 and the “SI CA II/IX” value came to 1.7. At hCA IV, the Ki stood at 3680 nM, the “SI CA I/IV” value amounted to 0.04 and the “SI CA II/IV” value is listed as 0.03. Also, at hCA II, affinity was put at a Ki of 115 nM and the “SI CA I/II” value turned out to be 1.2. Moreover, on hCA XII, the affinity corresponds to a Ki of 75.2 nM, the “SI CA I/XII” value came out at 1.8 and the “SI CA II/XII” value was found to be 1.5. The molecule also had a Ki at hCA I of 136 nM.

With `NS(=O)(=O)c1ccc(CCNCc2ccc(Br)cc2)cc1` [Compound 7, 4-(2-((4-Bromobenzyl)amino)ethyl)benzenesulfonamide], at hCA IX, the Ki is 86.4 nM, the “SI CA I/IX” value was 2.5 and the “SI CA II/IX” value is listed as 2.2. On hCA IV, the Ki worked out at 5240 nM, the “SI CA I/IV” value is recorded as 0.04 and the “SI CA II/IV” value was 0.04. Also, at hCA II, the Ki is 189 nM and the “SI CA I/II” value came to 1.1. At hCA XII, the affinity, expressed as Ki, was 83.6 nM; the “SI CA I/XII” value was found to be 2.6; the “SI CA II/XII” value is 2.3. Moreover, the Ki at hCA I stood at 214 nM.

For `N#Cc1ccc(CNCCc2ccc(S(N)(=O)=O)cc2)cc1` [Compound 8, 4-(2-((4-Cyanobenzyl)amino)ethyl)benzenesulfonamide], the Ki on hCA IV came out at 1780 nM; on hCA II, 70.2 nM; on hCA XII, 52.9 nM; at hCA I, 91.4 nM.

As for `CN(C)c1ccc(CNCCc2ccc(S(N)(=O)=O)cc2)cc1` [Compound 9, 4-(2-((4-(Dimethylamino)benzyl)amino)ethyl)benzenesulfonamide], the Ki on hCA IV came out at 961 nM.

As to `COc1cc([N+](=O)[O-])ccc1CNCCc1ccc(S(N)(=O)=O)cc1` [Compound 11, 4-(2-((2-Methoxy-4-nitrobenzyl)amino)ethyl)benzenesulfonamide], the inhibition constant (Ki) came to 1860 nM at hCA IV and 145 nM on hCA I.

Consider `COc1ccc(CNCCc2ccc(S(N)(=O)=O)cc2)cc1` [Compound 12, 4-(2-((4-Methoxybenzyl)amino)ethyl)benzenesulfonamide], for which the values for the inhibition constant Ki on hCA IV, on hCA XII and on hCA I were 1450 nM, 57.2 nM and 97.2 nM, respectively.

`COc1ccc(CNCCc2ccc(S(N)(=O)=O)cc2)cc1OC` [Compound 13, 4-(2-((3,4-Dimethoxybenzyl)amino)ethyl)benzenesulfonamide]: on hCA IX, the affinity, expressed as Ki, was 103 nM; the “SI CA I/IX” value is listed as 0.9; the “SI CA II/IX” value came out at 0.7. Further, on hCA IV, affinity was put at a Ki of 1100 nM and the “SI CA II/IV” value was 0.07. Also, at hCA II, the Ki was determined as 75.2 nM and the “SI CA I/II” value worked out at 1.2. At hCA XII, the inhibitory constant (Ki) was found to be 51 nM, the “SI CA I/XII” value worked out at 0.9 and the “SI CA II/XII” value amounted to 1.5. At hCA I, this molecule returned a Ki of 88.6 nM.

Take `CSc1ccc(CNCCc2ccc(S(N)(=O)=O)cc2)cc1` [Compound 14, 4-(2-((4-(Methylthio)benzyl)amino)ethyl)benzenesulfonamide]: the Ki at hCA IX is 112 nM; on hCA IV it was 2130 nM; on hCA XII, 88.6 nM; at hCA I it was 122 nM.

In the case of `NS(=O)(=O)c1ccc(CCNCc2csc3ccccc23)cc1` [Compound 16, 4-(2-((Benzo[b]thiophen-3-ylmethyl)amino)ethyl)benzenesulfonamide], at hCA IX, affinity was put at a Ki of 70.5 nM, the “SI CA I/IX” value amounted to 5.3 and the “SI CA II/IX” value amounted to 2.8. On hCA IV, affinity was put at a Ki of 7240 nM, the “SI CA I/IV” value stood at 0.05 and the “SI CA II/IV” value stood at 0.03. In addition, at hCA II, the affinity corresponds to a Ki of 202 nM and the “SI CA I/II” value came out at 1.9. For the same molecule, at hCA XII, the Ki came out at 69.8 nM, the “SI CA I/XII” value is 5.3 and the “SI CA II/XII” value was determined as 2.8. In addition, affinity at hCA I was put at a Ki of 374 nM.

In the case of `NS(=O)(=O)c1ccc(CCN(Cc2ccccc2)C(=O)c2ccc(-c3cssc3=S)cc2)cc1` [Compound 19, N-Benzyl-N-(4-sulfamoylphenethyl)-4-(3-thioxo-3H-1,2-dithiol-4-yl)benzamide], the melting point lay within 139 to 140 °C. Further, at hCA IX, the “SI CA I/IX” value came to 19.2 and the “SI CA II/IX” value is recorded as 11.1. Moreover, at hCA IV, the “SI CA I/IV” value came to 0.18 and the “SI CA II/IV” value was 0.11. Further, on hCA XII, the “SI CA I/XII” value worked out at 79.4 and the “SI CA II/XII” value came to 49.5. Further, the Ki on hCA I was 771 to 890 nM.

Molecule `NS(=O)(=O)c1ccc(CCN(Cc2ccc(F)cc2)C(=O)c2ccc(-c3cssc3=S)cc2)cc1` [Compound 20, N-(4-Fluorobenzyl)-N-(4-sulfamoylphenethyl)-4-(3-thioxo-3H-1,2-dithiol-4-yl)benzamide] yielded a melting point of 158 to 159 °C. Besides, at hCA IX, the “SI CA I/IX” value is recorded as 115 and the “SI CA II/IX” value worked out at 13.0. On hCA IV, the “SI CA I/IV” value is less than 0.53 and the “SI CA II/IV” value was less than 0.06. At hCA XII, the “SI CA I/XII” value is given as 81.5 and the “SI CA II/XII” value was 9.2.

With `NS(=O)(=O)c1ccc(CCN(Cc2ccc(Cl)cc2)C(=O)c2ccc(-c3cssc3=S)cc2)cc1` [Compound 21, N-(4-Chlorobenzyl)-N-(4-sulfamoylphenethyl)-4-(3-thioxo-3H-1,2-dithiol-4-yl)benzamide], the melting point was in the range of 104 to 105 °C. Also, at hCA IX, the “SI CA I/IX” value is listed as 229 and the “SI CA II/IX” value worked out at 124. Moreover, at hCA IV, the “SI CA I/IV” value amounted to 12.8 and the “SI CA II/IV” value worked out at 6.9. Besides, on hCA XII, the “SI CA I/XII” value was determined as 561 and the “SI CA II/XII” value is on record as 303.

For the molecule `NS(=O)(=O)c1ccc(CCN(Cc2ccc(Br)cc2)C(=O)c2ccc(-c3cssc3=S)cc2)cc1` [Compound 22, N-(4-Bromobenzyl)-N-(4-sulfamoylphenethyl)-4-(3-thioxo-3H-1,2-dithiol-4-yl)benzamide], the melting point was 65 to 66 °C. At hCA IX, the “SI CA I/IX” value amounted to 403 and the “SI CA II/IX” value was found to be 192. Further, at hCA IV, the “SI CA I/IV” value was 7.4 and the “SI CA II/IV” value was found to be 3.5. Besides, on hCA XII, the “SI CA I/XII” value is on record as 597 and the “SI CA II/XII” value came out at 284.

For the molecule `N#Cc1ccc(CN(CCc2ccc(S(N)(=O)=O)cc2)C(=O)c2ccc(-c3cssc3=S)cc2)cc1` [Compound 23, N-(4-Cyanobenzyl)-N-(4-sulfamoylphenethyl)-4-(3-thioxo-3H-1,2-dithiol-4-yl)benzamide], the melting point lay within 251 to 252 °C. At hCA IX, the “SI CA I/IX” value was more than 248 and the “SI CA II/IX” value was 120. Also, on hCA IV, the “SI CA I/IV” value is more than 216.4 and the “SI CA II/IV” value is recorded as 104. At hCA XII, the “SI CA I/XII” value is recorded as more than 1136 and the “SI CA II/XII” value amounted to 548.

On to `CN(C)c1ccc(CN(CCc2ccc(S(N)(=O)=O)cc2)C(=O)c2ccc(-c3cssc3=S)cc2)cc1` [Compound 24, N-(4-(Dimethylamino)benzyl)-N-(4-sulfamoylphenethyl)-4-(3-thioxo-3H-1,2-dithiol-4-yl)benzamide], for which the melting point fell in the range of 185 to 186 °C. At hCA IX, the “SI CA I/IX” value was determined as 188 and the “SI CA II/IX” value is on record as 43.9. At hCA IV, the “SI CA I/IV” value is 1.2 and the “SI CA II/IV” value was found to be 0.3. At hCA XII, the “SI CA I/XII” value worked out at 448 and the “SI CA II/XII” value worked out at 105.

For `NS(=O)(=O)c1ccc(CCN(Cc2ccc([N+](=O)[O-])cc2)C(=O)c2ccc(-c3cssc3=S)cc2)cc1` [Compound 25, N-(4-Nitrobenzyl)-N-(4-sulfamoylphenethyl)-4-(3-thioxo-3H-1,2-dithiol-4-yl)benzamide], the melting point fell in the range of 223 to 224 °C. Further, on hCA IX, the “SI CA I/IX” value is reported as 204 and the “SI CA II/IX” value worked out at 25.1. For the same molecule, at hCA IV, the “SI CA I/IV” value is on record as less than 0.7 and the “SI CA II/IV” value is less than 0.09. In addition, on hCA XII, the “SI CA I/XII” value came out at 226 and the “SI CA II/XII” value was 27.9.

On to `COc1ccc(CN(CCc2ccc(S(N)(=O)=O)cc2)C(=O)c2ccc(-c3cssc3=S)cc2)cc1` [Compound 27, N-(4-Methoxybenzyl)-N-(4-sulfamoylphenethyl)-4-(3-thioxo-3H-1,2-dithiol-4-yl)benzamide], for which the melting point is 151 to 152 °C. At hCA IX, the “SI CA I/IX” value was 44.0 and the “SI CA II/IX” value was found to be 11.7. In addition, at hCA IV, the “SI CA I/IV” value was found to be 1.4 and the “SI CA II/IV” value is reported as 0.4. In addition, at hCA XII, the “SI CA I/XII” value came out at 29.0 and the “SI CA II/XII” value is on record as 7.7.

Take `NS(=O)(=O)c1ccc(CCN(CCc2ccccc2)C(=O)c2ccc(-c3cssc3=S)cc2)cc1` [Compound 32, N-Phenethyl-N-(4-sulfamoylphenethyl)-4-(3-thioxo-3H-1,2-dithiol-4-yl)benzamide]: the melting point was 228 to 229 °C. Moreover, on hCA IX, the “SI CA I/IX” value worked out at 34.9 and the “SI CA II/IX” value was determined as 5.3. Further, on hCA IV, the “SI CA I/IV” value was found to be 18.0 and the “SI CA II/IV” value amounted to 2.7. On hCA XII, the “SI CA I/XII” value came out at 462 and the “SI CA II/XII” value was 69.6.

As to `N#CCCN(CCc1ccc(S(N)(=O)=O)cc1)C(=O)c1ccc(-c2cssc2=S)cc1` [Compound 33, N-(2-Cyanoethyl)-N-(4-sulfamoylphenethyl)-4-(3-thioxo-3H-1,2-dithiol-4-yl)benzamide], on hCA IX, the “SI CA I/IX” value is given as 15.0 and the “SI CA II/IX” value came to 2.1. Further, at hCA IV, the “SI CA I/IV” value came to 0.8 and the “SI CA II/IV” value worked out at 0.11. Also, on hCA XII, the “SI CA I/XII” value stood at 45.2 and the “SI CA II/XII” value worked out at 6.4.

For the origin of these results see paper PMC9574929, “Development of Hydrogen Sulfide-Releasing Carbonic Anhydrases IX- and XII-Selective Inhibitors with Enhanced Antihyperalgesic Action in a Rat Model of Arthritis” (Journal of Medicinal Chemistry, 2022).
